Results taken from publication PMC2645942 (Journal of medicinal chemistry, 2008).

How the values were obtained:
[1] = biological target: αD97Cβγ (α1D97Cβ2γ2 GABAA receptor) (Rattus norvegicus, UniProt P18508+P62813, D124C/INS375LLRMFSFK); test: Radioligand binding, αD97Cβγ mutant
[2] = biological target: αβγF77C (α1β2γ2F77C GABAA receptor) (Rattus norvegicus, UniProt P18508+P62813, F115C/INS375LLRMFSFK); test: Radioligand binding, αβγF77C mutant
[3] = biological target: αY209Cβγ (α1Y209Cβ2γ2 GABAA receptor) (Rattus norvegicus, UniProt P18508+P62813, INS375LLRMFSFK/Y236C); test: Radioligand binding, αY209Cβγ mutant

Measured: specific binding of radioligand

CCOC(=O)c1ncn2c1CN(C)C(=O)c1cc(F)ccc1-2 [Ro15-1788, ethyl 8-fluoro-5,6-dihydro-5-methyl-6-oxo-4H-imidazo[1,5-a][1,4]benzodiazepine-3-carboxylate]
not measurable: all assays above

CN1C(=O)CN=C(c2ccccc2F)c2cc([N+](=O)[O-])ccc21 [flunitrazepam]
not measurable: all assays above
